Data published in US12295936B2, “Immunomodulating urea azalides” (Zoetis Services LLC, priority 2020, dated 2025).

What was measured:
[1] = system: IL-1β; assay: LPS-stimulated whole bovine blood assay, MSD cytokine detection; format: cell-based; conditions: overstimulation of IL-1β, LPS-stimulated bovine whole blood
[2] = system: TNF-α; assay: as above; format: cell-based; conditions: Bos taurus, LPS-stimulated bovine whole blood; read-out: TNF-α (IC50 μM)
[3] = system: P. multocida 46572; assay: In vivo mouse lung infection challenge model (murine efficacy); set-up: species or system CD-1 female mice; conditions: 20 mg/kg subcutaneous, P. multocida challenge; harmonized against the comparative vehicle survival rate
Procedure: The challenge organism was P. multocida 46572. Target challenge concentration was 5×10^2 CFU/mouse. Isolated colonies from overnight growth (37° C. with 5% CO2) on trypticase soy agar (TSA II) blood plates were transferred to room temperature Brain Heart Infusion Broth (BHIB). The broth culture was incubated 3.5-4 hours to approximately mid-log phase of growth, as measured by forward light scatter at 600 nm (OD600, 0.200). The culture was centrifuged to collect the bacterial pellet. The pellet was re-suspended in BHIB and adjusted to provide an approximate concentration of 2.7 log^10 colony forming units (CFU) in 0.04 mL at the highest concentration. The challenge inoculum concentration was confirmed by serial dilutions of the inoculum for CFU enumeration. On Day −5, CD-1 female mice were received. Mice were given standard rodent diet and water ad libitum. On Day 0, bacterial inoculum (0.04 mL) was administered to each mouse (n=36) intranasally. Compounds of the invention were dosed at 20 mg/kg (0.1 mL) in a buffered (˜pH 5.4) propylene glycol, monothioglycerol and water solution by subcutaneous injection. Animals were observed from Days 1-10. The study was terminated on Day 10. In addition, some treatment groups were sampled at 6, 24, and 48 hours post bacterial challenge for RNA sequence analysis of lung tissue.
The murine efficacy model (P. multocida challenge) was optimized, and the treatment group size was powered to be able to observe statistically significant improvement of survival to expected ranges for immunomodulatory compounds. The experimental design was a randomized complete block design. Mice were individually identified and treatment groups comingled within a cage, with every treatment group equally represented across cages. Mortality was the primary variable. Mortality data was analyzed using a generalized mixed model with fixed effect of treatment and random effect of block. Survival time was also analyzed using the SAS PHREG (survival analysis) procedure to examine whether there were significant differences between treatment groups and the control group. Numerous compounds of the invention and M9 (positive control) were tested in this model at a dose of 20 mg/kg. Typical percent survival for no treatment control is in the range of 0-20% based on study to study variation in challenge inoculum and rate of infection. […] Mouse survival for M9 was about 90-100%, further supporting its antibacterial properties against the bacterial strain (Table 3). Survival values presented are harmonized against the comparative vehicle survival rate.

[4] = system: BRD pathogens, M. haemolytica and P. multocida; assay: MIC screening panel of BRD pathogens (antibacterial / non-antibacterial); conditions: read-out: antibacterial / non-antibacterial (MIC for the BRD pathogens)

| SMILES | IL-1β OS of LPS [1] [µM] | IC50 [2] [µM] | Mouse Murine Percent Survival [3] [%] | MIC [4] [µg/mL] |
| --- | --- | --- | --- | --- |
| CCCNC(=O)N(C)[C@H]1C[C@@H](C)O[C@@H](O[C@@H]2[C@@H](C)[C@H](O[C@H]3C[C@@](C)(OC)[C@](O)(CNc4ccc(C(F)(F)F)cc4)[C@H](C)O3)[C@@H](C)C(=O)O[C@H](CC)[C@@](C)(O)[C@H](O)[C@@H](C)NC[C@H](C)C[C@@]2(C)O)[C@@H]1O [Example H-95, 1-((2S,3R,4S,6R)-2-(((2R,3S,4R,5R,8R,10R,11R,12S,13S,14R)-2-ethyl-3,4,10-trihydroxy-13-(((2R,4R,5S,6S)-5-hydroxy-4-methoxy-4,6-dimethyl-5-(((4-(trifluoromethyl)phenyl)amino)methyl)tetrahydro-2H-pyran-2-yl)oxy)-3,5,8,10,12,14-hexamethyl-15-oxo-1-oxa-6-azacyclopentadecan-11-yl)oxy)-3-hydroxy-6-methyltetrahydro-2H-pyran-4-yl)-1-methyl-3-propylurea] | 13 | 10 | 39 | > 64 |
| CCCNC[C@]1(O)[C@H](C)O[C@@H](O[C@H]2[C@H](C)[C@@H](O[C@@H]3O[C@H](C)C[C@H](N(C)C(=O)Nc4ccncc4)[C@H]3O)[C@](C)(O)C[C@@H](C)CN[C@H](C)[C@@H](O)[C@](C)(O)[C@@H](CC)OC(=O)[C@@H]2C)C[C@@]1(C)OC [Example H-73, 1-((2S,3R,4S,6R)-2-(((2R,3S,4R,5R,8R,10R,11R,12S,13S,14R)-2-ethyl-3,4,10-trihydroxy-13-(((2R,4R,5S,6S)-5-hydroxy-4-methoxy-4,6-dimethyl-5-((propylamino)methyl)tetrahydro-2H-pyran-2-yl)oxy)-3,5,8,10,12,14-hexamethyl-15-oxo-1-oxa-6-azacyclopentadecan-11-yl)oxy)-3-hydroxy-6-methyltetrahydro-2H-pyran-4-yl)-1-methyl-3-(pyridin-4-yl)urea] | >500 | > 500 | 4 | – |
| CC[C@H]1OC(=O)[C@H](C)[C@@H](O[C@H]2C[C@@](C)(OC)[C@](O)(CNCCN(C)C)[C@H](C)O2)[C@H](C)[C@@H](O[C@@H]2O[C@H](C)C[C@H](N(C)C(=O)Nc3ccccc3)[C@H]2O)[C@](C)(O)C[C@@H](C)CN[C@H](C)[C@@H](O)[C@]1(C)O [Example H-3, 1-((2S,3R,4S,6R)-2-(((2R,3S,4R,5R,8R,10R,11R,12S,13S,14R)-13-(((2R,4R,5S,6S)-5-(((2-(dimethylamino)ethyl)amino)methyl)-5-hydroxy-4-methoxy-4,6-dimethyltetrahydro-2H-pyran-2-yl)oxy)-2-ethyl-3,4,10-trihydroxy-3,5,8,10,12,14-hexamethyl-15-oxo-1-oxa-6-azacyclopentadecan-11-yl)oxy)-3-hydroxy-6-methyltetrahydro-2H-pyran-4-yl)-1-methyl-3-phenylurea] | >500 | 400 | 8 | – |
| CCCNC[C@]1(O)[C@H](C)O[C@@H](O[C@H]2[C@H](C)[C@@H](O[C@@H]3O[C@H](C)C[C@H](N(C)C(=O)Nc4ccc(OC)cc4)[C@H]3O)[C@](C)(O)C[C@@H](C)CN[C@H](C)[C@@H](O)[C@](C)(O)[C@@H](CC)OC(=O)[C@@H]2C)C[C@@]1(C)OC [Example H-87, 1-((2S,3R,4S,6R)-2-(((2R,3S,4R,5R,8R,10R,11R,12S,13S,14R)-2-ethyl-3,4,10-trihydroxy-13-(((2R,4R,5S,6S)-5-hydroxy-4-methoxy-4,6-dimethyl-5-((propylamino)methyl)tetrahydro-2H-pyran-2-yl)oxy)-3,5,8,10,12,14-hexamethyl-15-oxo-1-oxa-6-azacyclopentadecan-11-yl)oxy)-3-hydroxy-6-methyltetrahydro-2H-pyran-4-yl)-3-(4-methoxyphenyl)-1-methylurea] | 500 | 100 | 14 | – |
| CCCNC[C@]1(O)[C@H](C)O[C@@H](O[C@H]2[C@H](C)[C@@H](O[C@@H]3O[C@H](C)C[C@H](N(C)C(=O)N(c4ccccc4)C4CC4)[C@H]3O)[C@](C)(O)C[C@@H](C)CN[C@H](C)[C@@H](O)[C@](C)(O)[C@@H](CC)OC(=O)[C@@H]2C)C[C@@]1(C)OC [Example H-14, 1-cyclopropyl-3-((2S,3R,4S,6R)-2-(((2R,3S,4R,5R,8R,10R,11R,12S,13S,14R)-2-ethyl-3,4,10-trihydroxy-13-(((2R,4R,5S,6S)-5-hydroxy-4-methoxy-4,6-dimethyl-5-((propylamino)methyl)tetrahydro-2H-pyran-2-yl)oxy)-3,5,8,10,12,14-hexamethyl-15-oxo-1-oxa-6-azacyclopentadecan-11-yl)oxy)-3-hydroxy-6-methyltetrahydro-2H-pyran-4-yl)-3-methyl-1-phenylurea] | – | – | 46 | > 64 |
| CC[C@H]1OC(=O)[C@H](C)[C@@H](O[C@H]2C[C@@](C)(OC)[C@@H](O)[C@H](C)O2)[C@H](C)[C@@H](O[C@@H]2O[C@H](C)C[C@H](N(C)C(=O)Nc3ccccc3)[C@H]2O)[C@](C)(O)C[C@@H](C)CN(C)[C@H](C)[C@@H](O)[C@]1(C)O [Example B-4, 1-((2S,3R,4S,6R)-2-(((2R,3S,4R,5R,8R,10R,11R,12S,13S,14R)-2-ethyl-3,4,10-trihydroxy-13-(((2R,4R,5S,6S)-5-hydroxy-4-methoxy-4,6-dimethyltetrahydro-2H-pyran-2-yl)oxy)-3,5,6,8,10,12,14-heptamethyl-15-oxo-1-oxa-6-azacyclopentadecan-11-yl)oxy)-3-hydroxy-6-methyltetrahydro-2H-pyran-4-yl)-1-methyl-3-phenylurea] | 80 | 45 | 7 | – |
| CC[C@H]1OC(=O)[C@H](C)[C@@H](O[C@H]2C[C@@](C)(OC)[C@](C)(O)[C@H](C)O2)[C@H](C)[C@@H](O[C@@H]2O[C@H](C)C[C@H](N(C)C(=O)N(C)c3ccc(C(F)(F)F)cc3)[C@H]2O)[C@](C)(O)C[C@@H](C)CN[C@H](C)[C@@H](O)[C@]1(C)O [Example B-13a, 1-((2S,3R,4S,6R)-2-(((2R,3S,4R,5R,8R,10R,11R,12S,13S,14R)-2-ethyl-3,4,10-trihydroxy-13-(((2R,4R,5R,6S)-5-hydroxy-4-methoxy-4,5,6-trimethyltetrahydro-2H-pyran-2-yl)oxy)-3,5,8,10,12,14-hexamethyl-15-oxo-1-oxa-6-azacyclopentadecan-11-yl)oxy)-3-hydroxy-6-methyltetrahydro-2H-pyran-4-yl)-1,3-dimethyl-3-(4-(trifluoromethyl)phenyl)urea] | 16 | 20 | 44 | – |
| CCCNC[C@]1(O)[C@H](C)O[C@@H](O[C@H]2[C@H](C)[C@@H](O[C@@H]3O[C@H](C)C[C@H](N(C)C(N)=O)[C@H]3O)[C@](C)(O)C[C@@H](C)CN[C@H](C)[C@@H](O)[C@](C)(O)[C@@H](CC)OC(=O)[C@@H]2C)C[C@@]1(C)OC [Example H-96, 1-((2S,3R,4S,6R)-2-(((2R,3S,4R,5R,8R,10R,11R,12S,13S,14R)-2-ethyl-3,4,10-trihydroxy-13-(((2R,4R,5S,6S)-5-hydroxy-4-methoxy-4,6-dimethyl-5-((propylamino)methyl)tetrahydro-2H-pyran-2-yl)oxy)-3,5,8,10,12,14-hexamethyl-15-oxo-1-oxa-6-azacyclopentadecan-11-yl)oxy)-3-hydroxy-6-methyltetrahydro-2H-pyran-4-yl)-1-methylurea] | – | – | 11 | > 64 |
